Assay results taken from patent US20230079819A1, “COMPOUNDS AND USES THEREOF” (Foghorn Therapeutics Inc., priority 2019, published 2023).

Tests used:
BRG-1 = molecular target: T1, BRG-1 (Homo sapiens, UniProt P51532); assay: ATPase catalytic activity of BRG-1, ADP-Glo in vitro biochemical assay; conditions: ATPase catalytic activity, 30 nM BRG-1, 400 μM ATP, read-out: BRG1 IP50 (μM)*
T1 construct: made in house; host or cells: High Five insect cells

BRM = molecular target: T2, BRM (Homo sapiens, UniProt P51531); assay: ATPase catalytic activity of BRM, ADP-Glo in vitro biochemical assay; conditions: ATPase catalytic activity, 30 nM BRM, 400 μM ATP, read-out: BRM IP50 (μM)*
T2 construct: made in house; host or cells: High Five insect cells
T2 sequence (P51531 whole entry): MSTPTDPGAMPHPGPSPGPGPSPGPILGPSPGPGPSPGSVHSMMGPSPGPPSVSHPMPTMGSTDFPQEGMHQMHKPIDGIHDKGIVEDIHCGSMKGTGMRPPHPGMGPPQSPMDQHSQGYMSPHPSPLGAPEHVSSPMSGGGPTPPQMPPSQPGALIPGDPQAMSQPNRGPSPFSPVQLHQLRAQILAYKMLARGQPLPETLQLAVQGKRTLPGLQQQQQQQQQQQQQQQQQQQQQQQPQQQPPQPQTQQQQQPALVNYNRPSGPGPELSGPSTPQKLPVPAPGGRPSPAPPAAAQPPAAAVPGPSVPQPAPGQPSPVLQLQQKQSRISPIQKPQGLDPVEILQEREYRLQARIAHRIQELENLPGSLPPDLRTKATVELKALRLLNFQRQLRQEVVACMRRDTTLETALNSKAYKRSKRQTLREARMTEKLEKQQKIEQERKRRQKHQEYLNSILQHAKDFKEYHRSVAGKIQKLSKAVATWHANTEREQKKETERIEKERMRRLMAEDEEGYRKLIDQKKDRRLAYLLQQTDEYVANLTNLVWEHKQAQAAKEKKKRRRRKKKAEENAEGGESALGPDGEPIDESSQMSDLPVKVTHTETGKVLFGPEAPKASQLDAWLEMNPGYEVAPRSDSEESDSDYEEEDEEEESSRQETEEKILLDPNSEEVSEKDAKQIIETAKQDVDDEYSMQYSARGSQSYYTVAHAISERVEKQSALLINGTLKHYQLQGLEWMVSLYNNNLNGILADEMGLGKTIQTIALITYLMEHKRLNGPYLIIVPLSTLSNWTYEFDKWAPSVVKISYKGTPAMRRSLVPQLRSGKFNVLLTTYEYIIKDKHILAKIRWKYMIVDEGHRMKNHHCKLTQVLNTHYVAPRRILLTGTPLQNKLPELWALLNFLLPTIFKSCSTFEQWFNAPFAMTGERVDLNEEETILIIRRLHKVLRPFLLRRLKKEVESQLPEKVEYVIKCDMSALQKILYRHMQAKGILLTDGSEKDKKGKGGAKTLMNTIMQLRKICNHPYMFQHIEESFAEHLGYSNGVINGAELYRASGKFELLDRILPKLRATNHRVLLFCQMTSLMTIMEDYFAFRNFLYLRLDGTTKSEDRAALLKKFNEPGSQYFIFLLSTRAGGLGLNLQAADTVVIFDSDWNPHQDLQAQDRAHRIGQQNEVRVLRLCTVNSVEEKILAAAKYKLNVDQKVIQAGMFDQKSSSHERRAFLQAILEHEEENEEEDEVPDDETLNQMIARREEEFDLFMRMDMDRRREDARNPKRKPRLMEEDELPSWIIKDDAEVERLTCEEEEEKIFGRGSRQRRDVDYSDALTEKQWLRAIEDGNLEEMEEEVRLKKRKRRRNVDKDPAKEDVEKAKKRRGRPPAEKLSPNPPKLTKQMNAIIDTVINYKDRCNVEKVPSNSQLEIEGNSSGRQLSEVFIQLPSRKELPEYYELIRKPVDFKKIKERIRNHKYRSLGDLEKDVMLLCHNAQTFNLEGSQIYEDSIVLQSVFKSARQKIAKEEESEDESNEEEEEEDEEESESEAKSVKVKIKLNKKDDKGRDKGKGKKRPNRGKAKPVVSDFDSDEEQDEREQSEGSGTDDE

T1 sequence (P51532 whole entry): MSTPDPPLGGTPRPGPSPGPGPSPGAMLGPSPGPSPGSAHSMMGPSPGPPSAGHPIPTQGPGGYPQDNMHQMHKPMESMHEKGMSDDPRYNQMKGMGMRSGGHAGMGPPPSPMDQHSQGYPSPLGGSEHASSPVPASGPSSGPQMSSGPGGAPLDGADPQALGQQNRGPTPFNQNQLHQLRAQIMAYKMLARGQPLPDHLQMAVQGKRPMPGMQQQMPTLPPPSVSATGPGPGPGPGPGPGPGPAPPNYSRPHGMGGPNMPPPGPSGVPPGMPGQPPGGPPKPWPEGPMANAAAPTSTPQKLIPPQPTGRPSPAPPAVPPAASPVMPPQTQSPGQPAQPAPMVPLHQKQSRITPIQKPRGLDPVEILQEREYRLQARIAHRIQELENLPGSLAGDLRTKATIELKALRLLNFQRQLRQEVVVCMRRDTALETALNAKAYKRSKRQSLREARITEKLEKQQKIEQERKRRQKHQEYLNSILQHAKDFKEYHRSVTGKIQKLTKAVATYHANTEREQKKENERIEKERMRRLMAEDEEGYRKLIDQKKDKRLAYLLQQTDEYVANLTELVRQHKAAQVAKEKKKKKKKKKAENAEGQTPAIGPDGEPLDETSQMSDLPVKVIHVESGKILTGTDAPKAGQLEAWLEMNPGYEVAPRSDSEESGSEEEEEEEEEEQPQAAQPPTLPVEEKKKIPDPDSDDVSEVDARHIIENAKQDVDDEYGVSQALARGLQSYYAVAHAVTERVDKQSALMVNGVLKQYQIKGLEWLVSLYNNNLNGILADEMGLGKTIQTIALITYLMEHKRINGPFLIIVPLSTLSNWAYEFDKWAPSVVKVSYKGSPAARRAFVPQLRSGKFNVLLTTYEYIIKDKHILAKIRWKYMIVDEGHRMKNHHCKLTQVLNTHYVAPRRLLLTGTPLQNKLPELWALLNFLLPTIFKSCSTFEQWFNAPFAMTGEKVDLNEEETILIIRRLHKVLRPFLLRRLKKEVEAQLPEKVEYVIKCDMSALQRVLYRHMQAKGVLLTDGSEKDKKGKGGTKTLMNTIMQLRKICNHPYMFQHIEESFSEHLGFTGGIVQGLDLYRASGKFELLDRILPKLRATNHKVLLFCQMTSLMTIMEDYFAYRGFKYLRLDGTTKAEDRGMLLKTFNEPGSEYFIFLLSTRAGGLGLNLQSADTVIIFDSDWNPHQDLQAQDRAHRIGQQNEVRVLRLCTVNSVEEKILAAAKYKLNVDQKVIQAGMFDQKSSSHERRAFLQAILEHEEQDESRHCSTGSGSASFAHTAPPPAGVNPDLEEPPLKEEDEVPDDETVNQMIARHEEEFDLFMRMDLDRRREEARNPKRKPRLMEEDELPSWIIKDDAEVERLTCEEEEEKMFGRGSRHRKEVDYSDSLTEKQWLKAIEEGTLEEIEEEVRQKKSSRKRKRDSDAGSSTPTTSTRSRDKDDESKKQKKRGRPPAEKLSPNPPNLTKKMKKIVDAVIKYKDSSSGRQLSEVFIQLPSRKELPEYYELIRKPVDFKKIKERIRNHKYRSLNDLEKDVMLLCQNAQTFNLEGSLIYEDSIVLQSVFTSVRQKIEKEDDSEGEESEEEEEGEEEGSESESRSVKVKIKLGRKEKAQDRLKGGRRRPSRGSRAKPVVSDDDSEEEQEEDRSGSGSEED

SMILES	IC50 (BRG-1) [µM]	IC50 (BRM) [µM]
CS(=O)(=O)n1ccc(C(=O)NCC(=O)Nc2nc(-c3cccc(N4CCC[C@@H](O)C4)c3)cs2)c1 [Compound 215]	> 0.01	> 0.01
CS(=O)(=O)n1ccc(C(=O)NCC(=O)Nc2nc(-c3cccc(N4CCC(C#N)CC4)c3)cs2)c1 [Compound 216]	> 0.01	> 0.01
CC(C)(C(=O)O)n1ccc(-c2cccc(-c3csc(NC(=O)CNC(=O)c4ccn(S(C)(=O)=O)c4)n3)c2)n1 [Compound 217, 2-methyl-2-[3-[3-[2-[[2-[(1-methylsulfonylpyrrole-3-carbonyl)amino]acetyl]amino]thiazol-4-yl]phenyl]pyrazol-1-yl]propanoic acid]	> 0.01	> 0.01
CS(=O)(=O)n1ccc(C(=O)NCC(=O)Nc2nc(-c3cccc(-c4ccn(CC(=O)O)n4)c3)cs2)c1 [Compound 218]	> 0.01	> 0.01
CN1CCN(c2cccc(-c3csc(NC(=O)CNC(=O)c4ccn(S(C)(=O)=O)c4)n3)c2)CC1=O [Compound 220]	> 0.01	> 0.01
COC1CC2(C1)CN(c1cccc(-c3csc(NC(=O)CNC(=O)c4ccn(S(C)(=O)=O)c4)n3)c1)C2 [Compound 222]	> 0.1	> 0.01
CO[C@H]1CCN(c2cccc(-c3csc(NC(=O)CNC(=O)c4ccn(S(C)(=O)=O)c4)n3)c2)C1 [Compound 224]	> 0.01	> 0.01
CS(=O)(=O)n1ccc(C(=O)NCC(=O)Nc2nc(-c3cccc(N4CCC(F)(F)C4)c3)cs2)c1 [Compound 225]	> 0.01	> 0.01
CO[C@@H]1CCN(c2cccc(-c3csc(NC(=O)CNC(=O)c4ccn(S(C)(=O)=O)c4)n3)c2)C1 [Compound 226]	> 0.01	< 0.01
CS(=O)(=O)n1ccc(C(=O)NCC(=O)Nc2nc(-c3cccc(N4CCCC4)c3)cs2)c1 [Compound 231]	> 0.01	> 0.01
Cn1ncc2c1CCN(c1cccc(-c3csc(NC(=O)CNC(=O)c4ccn(S(C)(=O)=O)c4)n3)c1)C2 [Compound 234]	> 0.01	> 0.01
CC[C@H]1CN(c2cccc(-c3csc(NC(=O)CNC(=O)c4ccn(S(C)(=O)=O)c4)n3)c2)CCO1 [Compound 236]	> 0.01	> 0.01

The remaining lines, values ahead:

IC50 (BRG-1) [µM]	IC50 (BRM) [µM]	SMILES
> 0.01	> 0.01	C[C@H]1CN(c2cccc(-c3csc(NC(=O)CNC(=O)c4ccn(S(C)(=O)=O)c4)n3)c2)CC[C@H]1O [Compound 219]
> 0.01	> 0.01	C[C@@H]1CN(c2cccc(-c3csc(NC(=O)CNC(=O)c4ccn(S(=O)(=O)N(C)C)c4)n3)c2)C[C@H](C)O1 [Compound 221]
> 0.01	> 0.01	CS(=O)(=O)n1ccc(C(=O)NCC(=O)Nc2nc(-c3cccc(N4C[C@H]5COC[C@H]5C4)c3)cs2)c1 [Compound 223]
> 0.01	> 0.01	CS(=O)(=O)n1ccc(C(=O)NCC(=O)Nc2nc(-c3cccc(N4CC(N5CCOCC5)C4)c3)cs2)c1 [Compound 227]
> 0.01	< 0.01	CCS(=O)(=O)n1ccc(C(=O)NCC(=O)Nc2nc(-c3cccc(N4C[C@@H](C)O[C@@H](C)C4)c3)cs2)c1 [Compound 228]
> 0.1	> 0.1	C[C@@H]1CN(c2cccc(-c3csc(NC(=O)CNC(=O)c4ccn(C5COC5)c4)n3)c2)C[C@H](C)O1 [Compound 229]
> 0.1	> 0.01	CS(=O)(=O)n1ccc(C(=O)NCC(=O)Nc2nc(-c3cccc(N4CC5CC(C4)O5)c3)cs2)c1 [Compound 230]
> 0.01	> 0.01	C[C@H]1CCCN(c2cccc(-c3csc(NC(=O)CNC(=O)c4ccn(S(C)(=O)=O)c4)n3)c2)C1 [Compound 232]
> 0.01	< 0.01	CS(=O)(=O)n1ccc(C(=O)NCC(=O)Nc2nc(-c3cccc(N4CCC4)c3)cs2)c1 [Compound 233]
> 0.01	> 0.01	C[C@@H]1CN(c2cccc(-c3csc(NC(=O)CNC(=O)c4ccn(C5(C)COC5)c4)n3)c2)C[C@H](C)O1 [Compound 235]
